As a reminder, the Ki is a measure of affinity in units of concentration, obtained from inhibition or displacement. What is called IC50 is the midpoint of a concentration-inhibition curve.

In assay [1] the target is SaveOBP9. On the set-up: method as in PMID 33172024. As to conditions: SaveOBP9, strong binding force; cited from earlier work.
The target of assay [2] is CmedGOBP1 (Cnaphalocrocis medinalis, UniProt H9XFD0). Put plainly: Fluorescence competitive binding assay (1-NPN) with CmedGOBP1. How it is done: (§1) The method for fluorescence competition binding was the same as that described by Zeng et al. (2018). The fluorescent probe N-phenyl-1-naphthylamine (1-NPN) (Sangon Biotech, Shanghai, China) and phenylacetaldehyde, benzyl acetate, 1-heptanol, and hexanal (Aladdin, Shanghai, China) were diluted to 100 mM stocks in chromatographic-grade methanol and stored at −20 °C. Working solutions of 1 mM 1-NPN and each odorant were made up in methanol. Each CmedOBP solution was diluted in 1 mM Tris-HCl buffer to a final concentration of 2 μM.
Chain of CmedGOBP1 (H9XFD0 entry or part of it): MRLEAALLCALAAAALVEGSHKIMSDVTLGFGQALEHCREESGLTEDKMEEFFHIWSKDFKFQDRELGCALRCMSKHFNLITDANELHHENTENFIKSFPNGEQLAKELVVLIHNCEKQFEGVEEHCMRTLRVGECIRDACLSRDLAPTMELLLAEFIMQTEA
(§2) The RF5301PC fluorescence spectrophotometer (Shimadzu, Japan) was operated at an excitation wavelength of 337 nm and an emission wavelength of 405 nm (with excitation and emission slits of 5 nm and 10 nm, respectively). For each protein solution, 2 mL of diluted protein was added to the quartz cuvette, then 4 μL aliquots of 1-NPN solution were added at 2 min intervals to bring the final concentration of the probe to 2 μM. After the fluorescence intensity was stable, the maximum fluorescence value was recorded. The 1 mM volatile samples dissolved in methanol were then added to a final concentration of 20 μM. After 2 min, when the fluorescence value no longer fluctuated, the maximum fluorescence value was recorded. Each odor sample was tested in three technical replicates.
(§3) The binding ability of each protein to each odorant was determined by plotting the fluorescence intensity against the ligand concentration. Trend lines were linearized with the Scatchard method, then used to calculate the half-maximal inhibition concentration (IC50) of the ligand. The competition constant was calculated from the IC50 value as follows: Ki = [IC50]/(1 + [1-NPN]/K1-NPN) where 1-NPN is the concentration of free 1-NPN, and K1-NPN is the dissociation constant of the CmedOBP/[1-NPN] complex. The dissociation constant (Ki) was inversely correlated with the binding force between the protein and the odorant. At Ki > 50 μmol/L, the protein was considered to have no binding force with the volatile; at 20 μmol/L < Ki < 50 μmol/L, the protein was considered to have a weak binding force with the volatile; and at 0 μmol/L < Ki < 20 μmol/L, the protein was considered to have a strong binding force with the analyzed volatile.

Assay [3] deals with CmedGOBP2 (Cnaphalocrocis medinalis, UniProt H9XFD1). Briefly: Fluorescence competitive binding assay (1-NPN) with CmedGOBP2. How it is done:
as §1, §2, §3

The target in assay [4] is CmedPBP2 (Cnaphalocrocis medinalis, UniProt M4YHW5). Briefly: Fluorescence competitive binding assay (1-NPN) with CmedPBP2. As to the method:
as §1, §2, §3

Assay [5] has as its target CmedOBP1 (Cnaphalocrocis medinalis, UniProt H9XFD2). Put plainly: Fluorescence competitive binding assay (1-NPN) with CmedOBP1. How it is done: as §1, §2, §3
In assay [6] the target is CmedOBP6 (Cnaphalocrocis medinalis, UniProt A0A0U3C2E7). Briefly: Fluorescence competitive binding assay (1-NPN) with CmedOBP6. How it is done: as §1, §2, §3
Chain of CmedOBP6 (A0A0U3C2E7 entry or part of it): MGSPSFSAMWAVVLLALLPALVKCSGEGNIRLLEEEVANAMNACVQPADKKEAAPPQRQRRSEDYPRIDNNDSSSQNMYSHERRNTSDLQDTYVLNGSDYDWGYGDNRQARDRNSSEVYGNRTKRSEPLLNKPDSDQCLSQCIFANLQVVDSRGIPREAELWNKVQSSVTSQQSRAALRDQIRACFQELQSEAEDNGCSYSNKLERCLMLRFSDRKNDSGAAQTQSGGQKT
The target in assay [7] is CmedOBP15 (Cnaphalocrocis medinalis, UniProt A0A0U3C6L3). Briefly: Fluorescence competitive binding assay (1-NPN) with CmedOBP15. How it is done:
as §1, §2, §3

In assay [8] the target is CmedOBP26 (Cnaphalocrocis medinalis, UniProt A0A1P8SKA7). Briefly: Fluorescence competitive binding assay (1-NPN) with CmedOBP26. As to the method: as §1, §2, §3
Chain of CmedOBP26 (A0A1P8SKA7 entry or part of it): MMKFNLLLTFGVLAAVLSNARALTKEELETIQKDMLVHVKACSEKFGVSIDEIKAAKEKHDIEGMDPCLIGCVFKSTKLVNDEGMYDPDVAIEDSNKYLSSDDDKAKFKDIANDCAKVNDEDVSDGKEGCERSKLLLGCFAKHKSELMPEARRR
Setting [9] is: CmedGOBP1 2 μM, 1-NPN probe 2 μM, calculated from IC50, read-out: Ki.
Where [10] appears, read: CmedGOBP1 2 μM, 1-NPN probe 2 μM, read-out: IC50.
Setting [11] is: CmedGOBP2 2 μM, 1-NPN probe 2 μM, calculated from IC50, read-out: Ki.
[12] abbreviates: CmedGOBP2 2 μM, 1-NPN probe 2 μM, read-out: IC50.
[13] abbreviates: CmedPBP2 2 μM, 1-NPN probe 2 μM, calculated from IC50, read-out: Ki.
Setting [14] is: CmedPBP2 2 μM, 1-NPN probe 2 μM, read-out: IC50.
Where [15] appears, read: CmedOBP1 2 μM, 1-NPN probe 2 μM, calculated from IC50, read-out: Ki.
[16] abbreviates: CmedOBP1 2 μM, 1-NPN probe 2 μM, read-out: IC50.
Where [17] appears, read: CmedOBP6 2 μM, 1-NPN probe 2 μM, calculated from IC50, read-out: Ki.
Setting [18] is: CmedOBP6 2 μM, 1-NPN probe 2 μM, read-out: IC50.
Setting [19] is: CmedOBP15 2 μM, 1-NPN probe 2 μM, calculated from IC50, read-out: Ki.
Setting [20] is: CmedOBP15 2 μM, 1-NPN probe 2 μM, read-out: IC50.
The mark [21] stands for this setting: CmedOBP26 2 μM, 1-NPN probe 2 μM, calculated from IC50, read-out: Ki.
[22] abbreviates: CmedOBP26 2 μM, 1-NPN probe 2 μM, read-out: IC50.
Setting [23] is: Ki, CmedOBP1 2 μM, 1-NPN probe 2 μM, calculated from IC50.
The mark [24] stands for this setting: Ki, CmedOBP15 2 μM, 1-NPN probe 2 μM, calculated from IC50.

Read-outs that look alike come from different tables or passages of the source. A value given as a limit tells only on which side of the number the result lay.

Chain of CmedPBP2 (M4YHW5 entry or part of it): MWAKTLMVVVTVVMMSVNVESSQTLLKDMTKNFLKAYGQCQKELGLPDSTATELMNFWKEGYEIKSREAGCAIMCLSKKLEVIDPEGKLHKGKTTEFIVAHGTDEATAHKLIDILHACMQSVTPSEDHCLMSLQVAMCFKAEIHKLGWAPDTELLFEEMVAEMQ
Chain of CmedGOBP2 (H9XFD1 entry or part of it): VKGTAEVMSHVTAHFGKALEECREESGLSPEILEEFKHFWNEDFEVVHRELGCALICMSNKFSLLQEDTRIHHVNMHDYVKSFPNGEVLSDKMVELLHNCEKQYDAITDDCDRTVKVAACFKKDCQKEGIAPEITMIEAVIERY
Chain of CmedOBP1 (H9XFD2 entry or part of it): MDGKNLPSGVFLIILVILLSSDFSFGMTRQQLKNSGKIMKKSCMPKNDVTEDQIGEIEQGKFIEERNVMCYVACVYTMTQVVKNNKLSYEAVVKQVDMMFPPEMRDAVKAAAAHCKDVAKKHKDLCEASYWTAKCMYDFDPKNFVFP
Chain of CmedOBP15 (A0A0U3C6L3 entry or part of it): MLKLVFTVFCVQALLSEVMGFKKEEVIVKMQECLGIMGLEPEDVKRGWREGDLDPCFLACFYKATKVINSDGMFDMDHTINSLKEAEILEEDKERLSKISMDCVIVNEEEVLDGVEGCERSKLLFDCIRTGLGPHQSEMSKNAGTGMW

As for `CCCCCCCC=O` [octanal], the Ki in assay [1] is under 10 µM.
Take `CCCCCCCCCCCCCCCC` [hexadecane]: the Ki in assay [1] is under 10 µM.
`CC(=O)OCc1ccccc1` [Benzyl Acetate, benzyl acetate]: the Ki in assay [2] (setting [9]) is over 50 µM; in assay [3] (setting [11]), over 50 µM; in assay [4] (setting [13]), over 50 µM; in assay [5] (setting [15]), 31.5 µM; in assay [6] (setting [17]), over 50 µM; in assay [7] (setting [19]), 13.6 µM. For the same compound, the inhibition constant (Ki) in assay [7] (CmedOBP15, read-out: Ki value) was under 20 µM; in assay [8] (setting [21]), over 50 µM. Further, the IC50 in assay [2] (setting [10]) was determined as 223 µM; in assay [3] (setting [12]), 454 µM; in assay [4] (setting [14]), 235 µM; in assay [5] (setting [16]), 179 µM; in assay [6] (setting [18]) it was 558 µM; in assay [7] (setting [20]) it was 34.4 µM. Besides, in assay [8] (setting [22]), the IC50 was determined as 96.1 µM.
With `CCCCCCCCCCCCCC` [tetradecane], in assay [1], the Ki is under 10 µM.
Take `O=CCc1ccccc1` [Phenylacetaldehyde, phenylacetaldehyde]: the IC50 came to 162 µM in assay [2]; 123 µM in assay [3]; 85.8 µM in assay [4]; 77.5 µM in assay [5]; 357 µM in assay [6]; 44.3 µM in assay [7]. In assay [8], this compound returned an IC50 of 458 µM. The Ki in assay [2] is over 50 µM; in assay [3], over 50 µM; in assay [4], over 50 µM; in assay [5] (Ki value, CmedOBP1), under 20 µM; in assay [5] (setting [23]), 13.7 µM; in assay [6] it was over 50 µM. Besides, the inhibition constant Ki in assay [7] (Ki value, CmedOBP15) is under 20 µM; in assay [7] (setting [24]) it was 17.5 µM; in assay [8], over 50 µM.
Take `CCCCCCCO` [1-Heptanol, 1-heptanol]: the inhibitory constant (Ki) in assay [2] (setting [9]) is over 50 µM; in assay [3] (setting [11]) it was over 50 µM; in assay [4] (setting [13]), over 50 µM; in assay [5] (setting [15]), 12 µM; in assay [5] (CmedOBP1, read-out: Ki value), under 20 µM; in assay [6] (setting [17]) it was over 50 µM. Besides, the Ki is over 50 µM in assay [7] (setting [19]); 31.9 µM in assay [8] (setting [21]); 20 to 50 µM in assay [8] (CmedOBP26, read-out: Ki value). The IC50 in assay [2] (setting [10]) came out at 219 µM; in assay [3] (setting [12]) it was 99.7 µM; in assay [4] (setting [14]) it was 224 µM; in assay [5] (setting [16]) it was 68.1 µM; in assay [6] (setting [18]), 624 µM; in assay [7] (setting [20]), 290 µM. Moreover, in assay [8] (setting [22]), the half-maximal inhibitory concentration (IC50) amounted to 52.3 µM.
Consider `CCCCCCCCCC=O` [decanal], for which the inhibition constant (Ki) in assay [1] is under 10 µM.
Regarding `CCCCCC=O` [Hexanal, hexanal], the concentration for half-maximal inhibition (IC50) in assay [2] stood at 249 µM; in assay [3] it was 622 µM; in assay [4], 155 µM; in assay [5] it was 99.2 µM; in assay [6], 383 µM; in assay [7], 441 µM. This compound had a half-inhibitory concentration (IC50) in assay [8] of 200 µM. Moreover, the Ki in assay [2] was over 50 µM; in assay [3], over 50 µM; in assay [4] it was over 50 µM; in assay [5] (Ki value, CmedOBP1), under 20 µM; in assay [5] (setting [23]) it was 17.5 µM; in assay [6] it was over 50 µM. Besides, the Ki in assay [7] (setting [24]) and in assay [8] was over 50 µM in each case.
